Source: ChEMBL document CHEMBL1201862, “PubChem BioAssay data set” (2004)
Where a name gives a salt, the structure may show the parent alone.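 Interpolation was linear, between the two tested concentrations surrounding the appropriate level; five concentrations were tested over 48 hours in 96-well plates. GI50 marks 50% less growth.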 Active and inactive are the calls of the source. No stated cut-off is given here; in the data, active = GI50 up to about 1.1 µM and inactive = higher.

Legend:
Experiment in all cases: NCI tumour cell line growth inhibition, 48 h
786-0 = tested on: 786-0
A549 = tested on: A549
ACHN = tested on: ACHN
CCRF-CEM = tested on: CCRF-CEM
COLO 205 = tested on: COLO 205
DU-145 = tested on: DU-145
EKVX = tested on: EKVX
HCC 2998 = tested on: HCC 2998
HCT-116 = tested on: HCT-116
HCT-15 = tested on: HCT-15
HL-60 = tested on: HL-60
HOP-62 = tested on: HOP-62
HOP-92 = tested on: HOP-92
HT-29 = tested on: HT-29
IGROV-1 = tested on: IGROV-1
K562 = tested on: K562
KM12 = tested on: KM12
M14 = tested on: M14
MCF7 = tested on: MCF7
MOLT-4 = tested on: MOLT-4
NCI-H23 = tested on: NCI-H23
NCI-H460 = tested on: NCI-H460
NCI-H522 = tested on: NCI-H522
OVCAR-3 = tested on: OVCAR-3
OVCAR-5 = tested on: OVCAR-5
OVCAR-8 = tested on: OVCAR-8
PC-3 = tested on: PC-3
RXF 393 = tested on: RXF 393
SF-268 = tested on: SF-268
SF-539 = tested on: SF-539
SK-MEL-28 = tested on: SK-MEL-28
SK-MEL-2 = tested on: SK-MEL-2
SNB-19 = tested on: SNB-19
SNB-75 = tested on: SNB-75
SW-620 = tested on: SW-620
T47D = tested on: T47D
TK-10 = tested on: TK-10
UACC-257 = tested on: UACC-257
UACC-62 = tested on: UACC-62
UO-31 = tested on: UO-31
CAKI-1 = tested on: CAKI-1
LOX IMVI = tested on: LOX IMVI
MDA-MB-231 = tested on: MDA-MB-231
MDA-N = tested on: MDA-N
Malme-3M = tested on: Malme-3M
RPMI-8226 = tested on: RPMI-8226
SK-MEL-5 = tested on: SK-MEL-5
SK-OV-3 = tested on: SK-OV-3
SN12C = tested on: SN12C
A498 = tested on: A498
MDA-MB-435 = tested on: MDA-MB-435
NCI-H226 = tested on: NCI-H226
NCI/ADR-RES = tested on: NCI/ADR-RES
OVCAR-4 = tested on: OVCAR-4
SF-295 = tested on: SF-295
SR = tested on: SR
U-251 = tested on: U-251

Measured: GI50

COc1cc([C@@H]2c3cc4c(cc3[C@@H](Nc3ccc(NC(=O)c5cc([N+](=O)[O-])cn5C)cc3)[C@H]3COC(=O)[C@H]23)OCO4)cc(OC)c1O
0.365 µM: HCT-15
active: 786-0 0.0491 µM | A549 < 0.0124 µM | ACHN 0.0213 µM | CCRF-CEM < 0.01 µM | COLO 205 0.254 µM | DU-145 0.0143 µM | EKVX 0.333 µM | HCC 2998 0.243 µM | HCT-116 0.114 µM | HL-60 0.0176 µM | HOP-62 0.0179 µM | HOP-92 0.132 µM | HT-29 0.171 µM | IGROV-1 0.173 µM | K562 0.108 µM | KM12 0.22 µM | M14 0.0731 µM | MCF7 < 0.01 µM | MOLT-4 < 0.01 µM | NCI-H23 0.0385 µM | NCI-H460 < 0.01 µM | NCI-H522 0.272 µM | OVCAR-3 0.427 µM | OVCAR-5 0.419 µM | OVCAR-8 0.141 µM | PC-3 0.188 µM | RXF 393 0.243 µM | SF-268 0.191 µM | SF-539 0.0577 µM | SNB-19 0.0538 µM | SNB-75 0.0498 µM | SW-620 0.135 µM | T47D 0.0266 µM | TK-10 0.348 µM | UACC-257 0.581 µM | UACC-62 0.0828 µM | UO-31 0.244 µM
inactive: SK-MEL-28 1.22 µM | SK-MEL-2 1.21 µM

COc1cc2nc(N3CCN(C(=O)c4ccco4)CC3)nc(N)c2cc1OC [PRAZOSIN HYDROCHLORIDE]
inactive: NCI-H23 13.7 µM

CCN(CC)CCC/N=c1\c2cc(OC)ccc2[nH]c2c([N+](=O)[O-])ccc(NCCCN(CC)CC)c12
1.43 µM: HCT-15
inactive: 786-0 1.45 µM | A549 1.78 µM | CAKI-1 9.66 µM | COLO 205 5.13 µM | DU-145 5.13 µM | EKVX 3.97 µM | HCC 2998 1.49 µM | HOP-62 4.47 µM | HT-29 1.6 µM | IGROV-1 3.42 µM | K562 1.77 µM | KM12 1.52 µM | LOX IMVI 1.34 µM | M14 > 10 µM | MCF7 1.54 µM | MDA-MB-231 1.49 µM | MDA-N 5.77 µM | Malme-3M > 10 µM | NCI-H23 2.26 µM | PC-3 1.47 µM | RPMI-8226 1.72 µM | RXF 393 1.95 µM | SF-268 2.87 µM | SK-MEL-28 > 10 µM | SK-MEL-5 9.42 µM | SK-OV-3 3.08 µM | SN12C 2.04 µM | SNB-75 > 10 µM | SW-620 1.69 µM | T47D > 10 µM | TK-10 8.24 µM | UACC-257 > 10 µM | UACC-62 > 10 µM
active: CCRF-CEM 0.479 µM | HL-60 0.3 µM | MOLT-4 0.484 µM | OVCAR-8 1.03 µM

Nc1ccc(-c2nc3ccc(Cc4ccc5nc(-c6ccc(N)cc6)oc5c4)cc3o2)cc1
> 100 µM: HCT-15
inactive: 786-0 > 100 µM | A498 > 100 µM | A549 > 100 µM | ACHN > 100 µM | CAKI-1 > 100 µM | CCRF-CEM > 100 µM | COLO 205 > 100 µM | DU-145 > 100 µM | HCC 2998 > 100 µM | HCT-116 > 100 µM | HOP-92 47.4 µM | HT-29 > 100 µM | K562 44.5 µM | KM12 > 100 µM | LOX IMVI > 100 µM | M14 49.9 µM | MCF7 > 100 µM | MDA-MB-231 > 100 µM | MDA-MB-435 82.4 µM | MDA-N > 100 µM | MOLT-4 67 µM | Malme-3M 40 µM | NCI-H226 > 100 µM | NCI-H23 > 100 µM | NCI-H460 > 100 µM | NCI-H522 > 100 µM | NCI/ADR-RES > 100 µM | OVCAR-4 > 100 µM | OVCAR-5 > 100 µM | OVCAR-8 > 100 µM | PC-3 > 100 µM | RPMI-8226 > 100 µM | RXF 393 > 100 µM | SF-268 > 100 µM | SF-295 > 100 µM | SF-539 > 100 µM | SK-MEL-28 > 100 µM | SK-MEL-2 > 100 µM | SK-OV-3 > 100 µM | SN12C > 100 µM | SNB-19 > 100 µM | SR 12.7 µM | SW-620 > 100 µM | TK-10 > 100 µM | U-251 > 100 µM | UACC-257 > 100 µM | UACC-62 > 100 µM | UO-31 > 100 µM
